The subject of assay [1] is ED-2 (Kupffer cells). The assay is described as follows: Immunohistochemical staining of liver sections, ED-2 positive cells (Kupffer cells). The conditions noted are these: mean±SEM, 8 rats. In kind it is in vivo, albino Wistar rats. The method, then: The experimental hepatocarcinogenesis model was developed according to a protocol by Espandiaria et al. that was adapted for our purposes. To initiate and promote hepatocarcinogenesis, diethylnitrosamine (DEN) and 2-acetylaminofluorene (2-AAF) were used, respectively. For hepatocarcinogenesis initiation in this model, a single DEN dose (200 mg/kg b.wt.) dissolved in saline was injected intraperitoneally. After initiation, all rats underwent one period of 5-days fasting, as mitotic proliferative stimuli. To promote hepatocarcinogenesis, 2-acetylaminofluorene (2-AAF) was introduced in the form of six daily intragastric doses (30 mg/kg in 1% Tween 80); two weeks after DEN treatment.
Safranal at doses of 25 mg/kg by weight (b.wt.) and 50 mg/kg b.wt, was administrated orally to rats. These doses have been reported to suppress chemically-induced oxidative damage in rats. A total of 40 adult male albino Wistar rats were randomly divided into […] (n=8) and were subjected to different treatments. Group 1 (control) was orally administered distilled water (5 ml/kg b.wt.) throughout the experimental duration and were injected with a single dose of saline. Group 2 (Safranal only) was subjected to a safranal dose (50 mg/kg b.wt.) through oral administration for the duration of the experimental period. Hepatocarcinogenesis was induced by DEN and promoted by 2-AAF, as reported previously, in group 3 (HCC). Rats in protective groups (groups 4-5) were treated with low/high doses of saffron-based safranal suspensions, at the beginning of promotion periods and continued for 12 weeks. The low dosage treatment with safranal consisted of 25 mg/kg b.wt., and the high dosage treatment consisted of 50 mg/kg b.wt. The experimental design is illustrated in FIG. 1.
For immunohistochemical staining, mounted sections were immersed in sodium citrate buffer (0.1 M, pH 6) and placed in a water bath for 15 minutes to unmask antigen epitopes. […] Ten fields were randomly selected to quantify positive cells, in individual samples (400×). […]

The subject of assay [2] is p-IkB in HepG2 cells. Nature of the assay: Western blotting, p-IkB. In kind it is cell-based, human. The note with it: starting at 24 hours of safranal treatment (1 mM). The method, then: HepG2, were cultured in RPMI 1640 medium (HyClone, USA) and 1% of 100 U/ml penicillin and 100 ug/ml streptomycin (Sigma, USA) supplemented with 10% fetal bovine serum (Sigma, USA) at 37° C. in a humidified 5% CO2 atmosphere. Cells were sub-cultured each 4-6 days using trypsin 0.25% (Hyclone, USA).
In 100 mm plates, HepG2 cells were seeded at a density of 2×10^4 in complete growth medium. Cells were allowed to attach for 24 hours, after which complete growth medium was replaced by serum-free medium. Cells were treated with safranal at a concentration of 1 mM (20 mM stock). Plates were incubated for 6, 12, 24, and 48 hours in a humidified 5% CO2 atmosphere at 37° C. At indicated times, 1 mL of cell supernatant was obtained from each plate and was stored at −80° C. for further analysis by ELISA. After which whole cell lysates were prepared. Bicinchoninic acid (BCA) assay (Sigma-Aldrich, USA) was used to determine concentration of protein. Thirty μg of protein were loaded onto 10% SDS polyacrylamide electrophoresis gels. The gels were transferred onto nitrocellulose membranes prior to immunodetection processing with anti-p-IkB-alpha, anti-H2AX (Cell Signaling Technology, USA), and with anti-rabbit IgG peroxidase conjugated secondary antibodies. […]
In general terms: In western blotting, separated proteins are transferred to a membrane and probed.

Molecules are shown by their SMILES. Marks after values point to notes of the source that are not given here.

For `CC1=C(C=O)C(C)(C)CC=C1` [Safranal, 2,6,6-trimethylcyclohexa-1,3-diene-1-carbaldehyde], the ED-2 positive cells in assay [1] (HCC (DEN/2-AAF) rats + safranal high dose 50 mg/kg b.wt. oral, 12 weeks) was 46.44 ± 3.12^b positive cells/field; in assay [1] (HCC (DEN/2-AAF) rats + safranal low dose 25 mg/kg b.wt. oral, 12 weeks), 46.75 ± 3.04^b positive cells/field; in assay [1] (safranal alone 50 mg/kg b.wt. oral, no DEN (group 2)), 39.30 ± 1.77 positive cells/field. The “level of p-IkB protein” value in assay [2] is “transiently decreased”.

Source of the values: patent US10912741B2, “Prevention of liver cancer with safranal-based formulations” (United Arab Emirates University, priority 2019, dated 2021).
